# Tests used:
# [1] = test system: S. aureus (ATCC 6538); test: Bactericidal activity according to DIN EN 1040 (membrane filtration), microbial count reduction; assay type: cell-based; conditions: 20°±1° C., pH 6.3
# Experimental: (§1) With regard to a possible use as lock solution, a solution was prepared, for testing for antimicrobial activity, by dissolving 0.85 g of cyclotaurolidine and 4.8 g of monosodium citrate in water (100 ml) with stirring, a clear colorless solution being obtained. After the pH of the solution had been adjusted to 6.3, the solution was filtered and filled into ampoules. The bactericidal and fungicidal activity of the solution was tested by a recognized test laboratory according to DIN EN 1040 and DIN EN 1275 (membrane filtration) against the test organisms S. aureus (ATCC 6538), P. aeruginosa (ATCC 15442), S. epidermis (ATCC 12288), C. albicans (ATCC 10231) and A. niger (ATCC 16404). The microbial count reductions observed for an action time of the test solution of 60 min and of 24 h at a test temperature of 20°±1° C. were determined. The results are given in log steps of the microbial count reduction, minimum reductions of ≧5.0 log steps being required with respect to the test microorganisms S. aureus, P. aeruginosa and S. epidermis and log steps of ≧4.0 for C. albicans and A. niger, based on DIN EN 1040 and DIN EN 1275.
# [2] = test system: P. aeruginosa (ATCC 15442); test: as above; assay type: cell-based; conditions: 20°±1° C., pH 6.3
# Experimental: as §1
# [3] = test system: S. epidermis (ATCC 12288); test: as above; assay type: cell-based; conditions: 20°±1° C., pH 6.3
# Experimental: as §1
# [4] = Exploratory experiments for dissolving in water (solubility); assay type: physicochemical; conditions: in 100 ml of water at room temperature
# [5] = assay type: physicochemical
# Text: In contrast to taurolidin, cyclotaurolidine can therefore also be processed to give formulations in organic vehicles, for example in many customary organic vehicle materials for pharmaceutical and cosmetic purposes. This permits, for example, advantageous use in ointments and gels and on plastic surfaces (in the surface layers of stents), for example in agents for disinfecting the skin surface or as a fungicide, for example for the feet.
# [6] = test system: C. albicans (ATCC 10231); test: Fungicidal activity according to DIN EN 1275 (membrane filtration), microbial count reduction; assay type: cell-based; conditions: 20°±1° C., pH 6.3
# Experimental: as §1
# [7] = test system: A. niger (ATCC 16404); test: as above; assay type: cell-based; conditions: 20°±1° C., pH 6.3
# Experimental: as §1
# [8] = action time 60 min, 0.85 g cyclotaurolidine and 4.8 g monosodium citrate in 100 ml water
# [9] = action time 24 h, 0.85 g cyclotaurolidine and 4.8 g monosodium citrate in 100 ml water
# [10] = action time 60 min, comparative aqueous solution, 2% by weight of taurolidin with citrate
# [11] = action time 24 h, comparative aqueous solution, 2% by weight of taurolidin with citrate
smiles,measurement,setting,value
"O=S1(=O)CCN2COCN1C2 [cyclotaurolidine, 7-oxa-2-thia-1,5-diazabicyclo[3.3.1]nonane-2,2-dione]",microbial count reduction,[1]; [8],2.04 log steps
same,microbial count reduction,[1]; [9],> 5.25 log steps
same,microbial count reduction,[2]; [8],> 5.27 log steps
same,microbial count reduction,[2]; [9],> 5.27 log steps
same,microbial count reduction,[3]; [8],1.22 log steps
same,microbial count reduction,[3]; [9],> 5.29 log steps
same,solubility,[4],≤ 13 mg/mL
same,solubility in organic solvents,[5],soluble in various organic solvents
same,stability in the air,[5],stable in the air at customary temperatures
same,microbial count reduction,[6]; [8],> 4.26 log steps
same,microbial count reduction,[6]; [9],> 4.26 log steps
same,microbial count reduction,[7]; [8],> 4.08 log steps
same,microbial count reduction,[7]; [9],> 4.08 log steps
"O=S1(=O)CCN(CN2CCS(=O)(=O)NC2)CN1 [taurolidin, reference compound]",microbial count reduction,[1]; [10],1.33 log steps
same,microbial count reduction,[1]; [11],≥ 5.25 log steps
same,microbial count reduction,[2]; [10],> 5.27 log steps
same,microbial count reduction,[2]; [11],≥ 5.27 log steps
same,microbial count reduction,[3]; [10],> 0.99 log steps
same,microbial count reduction,[3]; [11],≥ 5.29 log steps
same,microbial count reduction,[6]; [10],0 log steps
same,microbial count reduction,[6]; [11],3.70 log steps
same,microbial count reduction,[7]; [10],1.18 log steps
same,microbial count reduction,[7]; [11],≥ 4.08 log steps

# From patent US7820651B2, “Preparation of antimicrobial formulations using 7-oxa-2-thia-1,5-diazabicyclo[3.3.1]nonane-2,2-dione” (priority 2006, dated 2010)
